Read-outs that look alike come from different tables or passages of the source.
Columns and labels:
[1] = tested on: anesthetized rats (evoked responses of anterior tibial muscle); test: In vivo neuromuscular block and cardiovascular side effects, anesthetized rat (Example 8, Table 3); conditions: for RI (recovery index): spontaneous recovery, 25-75% neuromuscular response; for Onset: time to 80-85% neuromuscular block
Method in brief: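 Pentobarbital-anesthetized (i.p.), ventilated adult male rats given saline-dissolved agents i.v.; anterior tibial EMG responses to supramaximal single or train-of-four sciatic/peroneal stimuli, plus 0.1 or 1 Hz stimulation. Doses for 50%, 80%, 90% block derived. Onset: minutes to 80-85% block; RI: 25-75% spontaneous recovery; vagal block, heart rate and blood pressure changes (%) at 80-85% blocking dose.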

[2] = tested on: anesthetized cats (evoked responses of anterior tibial muscle); test: animal or person; conditions: for RI (recovery index): spontaneous recovery, 25-75% neuromuscular response; for Onset: time to 80-85% neuromuscular block
Method in brief: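 Adult cats anesthetized i.p. with 70 mg/kg alpha chloralose plus 0.5 g/kg ethylurethane; agents in saline given i.v. Anterior tibial muscle responses to supramaximal single or train-of-four stimuli of sciatic or peroneal nerve recorded electromyographically and mechanomyographically, alongside blood pressure and heart rate.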

[3] = tested on: anesthetized juvenile pigs; test: animal or person; type: in vivo; conditions: pig; for ED50: intravenous dose causing 50% neuromuscular block; for RI (recovery index): spontaneous recovery, 25-75% neuromuscular response; for Onset: time to 80-85% neuromuscular block
Method in brief: (§1)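 Electromyographic and mechanomyographic responses quantified. Monkeys sedated with intramuscular ketamine, then general anesthesia with intravenous pentobarbital and propofol; juvenile pigs induced with inhaled halothane.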

[4] = tested on: anesthetized monkeys; test: In vivo neuromuscular block and cardiovascular side effects, monkey (Example 8, Table 6); conditions: for ED50: intravenous dose causing 50% neuromuscular block; for RI (recovery index): spontaneous recovery, 25-75% neuromuscular response; for Onset: time to 80-85% neuromuscular block
Method in brief: as §1

[5] = tested on: rabbits; test: In vivo neuromuscular block and cardiovascular side effects, rabbit (Example 8, Table 7); conditions: for ED50: intravenous dose causing 50% neuromuscular block; for RI (recovery index): spontaneous recovery, 25-75% neuromuscular response; for Onset: time to 80-85% neuromuscular block
[6] = tested on: dogs; test: animal or person; type: in vivo; conditions: dog; for ED50: intravenous dose causing 50% neuromuscular block; for RI (recovery index): spontaneous recovery, 25-75% neuromuscular response; for Onset: time to 80-85% neuromuscular block
[7] = rat, intravenous dose causing 50% neuromuscular block
[8] = cat, intravenous dose causing 50% neuromuscular block
[9] = rat, at 80-85% neuromuscular blocking dose
[10] = cat, at 80-85% neuromuscular blocking dose
[11] = at 80-85% neuromuscular blocking dose

CC(=O)Oc1ccc(C[N+]2(C)C3CCCC2CC(OC(=O)CCCC(=O)OC2CC4CCCC(C2)[N+]4(C)Cc2ccc(OC(C)=O)c(OC(C)=O)c2)C3)cc1OC(C)=O.[Br-].[Br-] (stereo not drawn) [bis[N-(3,4-diacetoxybenzyl)granataninium-3-yl]glutarate dibromide]
VB (vagal block) ([1]; rat, in vivo): 0%
ΔBP (change in arterial blood pressure) ([1]; rat, in vivo): 0%
ΔH (change in heart rate) ([1]; rat, in vivo): 0%
ED50 [1, 7]: 0.17 mg/kg
RI (recovery index) ([1]; rat): 0.45 min
Onset ([1]; rat): 0.6 min
ED50 [2, 8]: 0.7 mg/kg
RI (recovery index) ([2]; cat): 0.4 min
Onset ([2]; cat): 0.7 min
VB (vagal block) ([2]; in vivo): 60%
ΔBP (change in arterial blood pressure) ([2]; in vivo): −50%
ΔH (change in heart rate) ([2]; in vivo): 0%
VB (vagal block) ([3]; in vivo): 40%
ΔBP (change in arterial blood pressure) ([3]; in vivo): 0%
ΔH (change in heart rate) ([3]; in vivo): 0%
ED50 [3]: 0.235 mg/kg
RI (recovery index) [3]: 0.9 min
Onset [3]: 0.8 min
ΔBP (change in arterial blood pressure) ([4]; in vivo): 0%
ΔH (change in heart rate) ([4]; in vivo): 0%
ED50 [4]: 0.075 mg/kg
RI (recovery index) [4]: 0.4 min
Onset [4]: 0.7 min
ΔBP (change in arterial blood pressure) ([5]; in vivo): 0%
ΔH (change in heart rate) ([5]; in vivo): 0%
ED50 [5]: 0.165 mg/kg
RI (recovery index) [5]: 0.55 min
Onset [5]: 0.65 min
ΔBP (change in arterial blood pressure) ([6]; in vivo): −18%
ΔH (change in heart rate) ([6]; in vivo): 50%
ED50 [6]: 0.225 mg/kg
RI (recovery index) [6]: 0.6 min
Onset [6]: 0.65 min

COc1cc(C[N+]2(C)C3CCC2CC(OC(=O)C2C4C=CC(C4)C2C(=O)OC2CC4CCC(C2)[N+]4(C)Cc2ccc(OC(C)=O)c(OC)c2)C3)ccc1OC(C)=O.[Br-].[Br-] (stereo not drawn) [bis[N-(4-acetoxy-3-methoxybenzyl)tropanium-3α-yl]trans-3,6-endomethylene-1,2,3,6-tetrahydrophthalate dibromide]
VB (vagal block) [1, 9]: 25%
ΔBP (change in arterial blood pressure) [1, 9]: 0%
ΔH (change in heart rate) [1, 9]: 0%
ED50 [1, 7]: 0.15 mg/kg
RI (recovery index) ([1]; rat): 0.5 min
Onset ([1]; rat): 0.55 min
ED50 [2, 8]: 0.193 mg/kg
RI (recovery index) ([2]; cat): 0.4 min
Onset ([2]; cat): 0.7 min
VB (vagal block) ([2]; in vivo): 20%
ΔBP (change in arterial blood pressure) ([2]; in vivo): 0%
ΔH (change in heart rate) ([2]; in vivo): 5%
VB (vagal block) ([3]; in vivo): 43%
ΔBP (change in arterial blood pressure) ([3]; in vivo): 0%
ΔH (change in heart rate) ([3]; in vivo): 0%
ED50 [3]: 0.19 mg/kg
RI (recovery index) [3]: 1 min
Onset [3]: 0.6 min
ΔBP (change in arterial blood pressure) ([4]; in vivo): 0%
ΔH (change in heart rate) ([4]; in vivo): 0%
ED50 [4]: 0.055 mg/kg
RI (recovery index) [4]: 0.5 min
Onset [4]: 0.85 min
ΔBP (change in arterial blood pressure) ([5]; in vivo): 0%
ΔH (change in heart rate) ([5]; in vivo): 0%
ED50 [5]: 0.155 mg/kg
RI (recovery index) [5]: 0.65 min
Onset [5]: 0.65 min
ΔBP (change in arterial blood pressure) ([6]; in vivo): −25%
ΔH (change in heart rate) ([6]; in vivo): 40%
ED50 [6]: 0.35 mg/kg
RI (recovery index) [6]: 0.5 min
Onset [6]: 0.63 min

CC(=O)Oc1ccc(C[N+]2(C)[C@@H]3CC[C@H]2C[C@@H](OC(=O)C2CCCC(C(=O)O[C@H]4C[C@H]5CC[C@@H](C4)[N+]5(C)Cc4ccc(OC(C)=O)c(OC(C)=O)c4)C2)C3)cc1OC(C)=O.[Br-].[Br-] (stereo partly drawn) [bis[N-(3,4-diacetoxybenzyl)tropanium-3α-yl]cyclohexane-1,3-dicarboxylate dibromide]
ED50 ([1]; Rattus norvegicus, iv): 0.24 mg/kg
VB (vagal block) [1, 9]: 28%
ΔBP (change in arterial blood pressure) [1, 9]: 0%
ΔH (change in heart rate) [1, 9]: 0%
RI (recovery index) ([1]; rat): 0.5 min
Onset ([1]; rat): 0.65 min
ED50 ([2]; Felis catus, iv): 0.11 mg/kg
VB (vagal block) [2, 10]: 34%
ΔBP (change in arterial blood pressure) [2, 10]: −25%
ΔH (change in heart rate) [2, 10]: −12%
RI (recovery index) ([2]; cat): 0.5 min
Onset ([2]; cat): 0.8 min
ED50 ([3]; Sus scrofa, read-out: ED50): 0.225 mg/kg
VB (vagal block) [3, 11]: 54%
ΔBP (change in arterial blood pressure) [3, 11]: 0%
ΔH (change in heart rate) [3, 11]: 0%
RI (recovery index) [3]: 0.85 min
Onset [3]: 0.8 min
ED50 ([4]; Primates, read-out: ED50): 0.075 mg/kg
ΔBP (change in arterial blood pressure) [4, 11]: 0%
ΔH (change in heart rate) [4, 11]: 0%
RI (recovery index) [4]: 0.65 min
Onset [4]: 0.95 min
ED50 ([5]; Oryctolagus cuniculus, read-out: ED50): 0.1 mg/kg
ΔBP (change in arterial blood pressure) [5, 11]: 0%
ΔH (change in heart rate) [5, 11]: 0%
RI (recovery index) [5]: 0.7 min
Onset [5]: 0.9 min
ED50 ([6]; Canis lupus familiaris, read-out: ED50): 0.128 mg/kg
ΔBP (change in arterial blood pressure) [6, 11]: −5%
ΔH (change in heart rate) [6, 11]: 30%
RI (recovery index) [6]: 0.55 min
Onset [6]: 0.75 min
